These results are taken from patent publication EP1964834A1, “Sulphonyltryptophanols” (Bayer Schering Pharma Aktiengesellschaft, priority 2007, dated 2008).

pIC50: −log10 of the molar value.

By pIC50 is commonly meant −log10 of the IC50, conventionally taken in molar units.

This experiment concerns the target T1, human FSH receptor (Homo sapiens, UniProt P23945).
T1 construct: expressed in transfected cells; host or cells: CHO cells (hFSHR clone 16)
T1 sequence (P23945 18-695): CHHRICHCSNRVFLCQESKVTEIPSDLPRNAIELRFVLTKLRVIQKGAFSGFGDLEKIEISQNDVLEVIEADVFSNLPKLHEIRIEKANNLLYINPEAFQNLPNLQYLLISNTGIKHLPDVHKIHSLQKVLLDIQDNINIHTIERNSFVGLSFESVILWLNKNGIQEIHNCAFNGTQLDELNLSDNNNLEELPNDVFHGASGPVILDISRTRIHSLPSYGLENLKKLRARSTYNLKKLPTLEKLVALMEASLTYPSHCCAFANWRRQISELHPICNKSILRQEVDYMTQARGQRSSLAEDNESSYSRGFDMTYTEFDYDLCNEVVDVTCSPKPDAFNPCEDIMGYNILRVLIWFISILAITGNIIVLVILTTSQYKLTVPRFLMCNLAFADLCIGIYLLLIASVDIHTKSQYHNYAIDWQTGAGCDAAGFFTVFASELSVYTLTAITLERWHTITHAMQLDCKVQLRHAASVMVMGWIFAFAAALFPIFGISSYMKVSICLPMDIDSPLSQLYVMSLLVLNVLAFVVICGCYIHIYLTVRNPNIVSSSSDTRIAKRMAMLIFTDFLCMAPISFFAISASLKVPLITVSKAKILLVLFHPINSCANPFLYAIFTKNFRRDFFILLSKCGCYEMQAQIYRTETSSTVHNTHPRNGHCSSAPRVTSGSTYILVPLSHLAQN
Description: HTRF assay for measuring cAMP in cells (FSH antagonism). It counts as cell-based. The note with it: FSH antagonistic effect; hFSHR clone 16 cells (CHO cells stably transfected with the human FSH receptor); in the presence of 1 e-9 mol/I hFSH; 37°C for 2h. The method, then:
HTRF assay for measuring cAMP in cells
The method is based on a competitive immunoassay between native cAMP, which has been produced by the cells, and cAMP which is labelled with cAMPD2 conjugate. The tracer binding was visualized by a monoclonal antibody, anti-cAMP labelled with cryptate [HTRF = homogeneous time-resolved fluorescence]. The specific signal is inversely proportional to the cAMP concentration of the samples employed. The 665nm/ 620nm fluorescence ratio was evaluated.
The following material was used: 96-well plates for the tissue culture, 96-well plates with black edge and black base (e.g. Fluotrac 600 from Greiner), 96-well plates for the substance dilutions of polypropylene and cAMP Femtomolar (4000wells Kit, CIS Bio International # 62AM5PEJ). The following reagents were used: BSA (bovine serum albumin) Fraction V protease-free, IBMX (3-isobutyl-1-methylxanthine), hFSH (human follicle stimulating hormone), Triton X-100 analytical grade, potassium fluoride analytical grade, G 418 (Geneticin) and Accutase. • Buffer 1 (washing and testing buffer) contained PBS, 1 mM CaCl2, 1 mM MgCl2, 0.2% glucose; 0.1% BSA, 1 mM IBMX. • Buffer 2 (2x lysis buffer) contained 1% Triton X-100 in PBS (without CaCl2 and MgCl2). • Buffer 3 (assay buffer) contained 50 mM potassium phosphate buffer (pH 7.0); 800 mM potassium fluoride; 0.2% BSA (always added fresh).
On day 1, the cells were seeded in 96-well plates (3x10^4 cells per well hFSHR clone 16 cells (CHO cells stably transfected with the human FSH receptor in 150 µl of medium). The next day, test substance dilutions were made up. For this purpose, all the substances were diluted in ice-cold buffer 1 (with or without hFSH), and the substance dilutions were placed on ice until applied to the cells.
The cell supernatant was then aspirated off, and the cells were washed 2x with 200 µl of buffer 1. The cells were treated with 60 µl of the appropriate substance concentrations at 37°C for 2h. The cells were then lysed with 60 µl of buffer 2 (put onto the supernatant) (on a plate shaker at RT for 30 min).
The test conjugates (cAMP-D2 and anti-cAMP cryptate, CIS Bio) were diluted in buffer 3 in accordance with the manufacturers' information. The actual mixture for measurement was pipetted into a black 96-well plate (in each case 15 µl of the cell lysate diluted with 35 µl of buffer 1; firstly 25 µl of cAMP-D2 conjugate were pipetted and, after 10 min, 25 µl of the anti-cAMP cryptate were added). This is followed by incubation at RT for 90 minutes. The measurement was carried out in a PheraStar (BMG).
1) hFSHr clone 16 Ham's F12 PSG 10% FCS 700 µg/ml G 418 (Geneticin) from PAA.
Dose-effect curve (hFSH) for the human receptor: 1e-8, 3e-9, 1e-9, 3e-10, 1e-10, 3e-11, 1e-11, 3e-12 mol/l.
The test substances were employed in suitable dilutions in the absence (test for agonism) and in the presence of 1 e-9 mol/I hFSH.
The values of the well ratio were averaged and then entered directly in SigmaPlot versus the concentrations. The maximum and minimum values were determined for each plate, and half the difference is to be regarded as IC50.
Take `COc1ccc(-c2cc(OC)c(OC)c(OC)c2)cc1S(=O)(=O)N[C@@H](CO)Cc1c[nH]c2ccccc12` [Example 1, 4,3',4',5'-Tetramethoxy-biphenyl-3-sulfonic acid [(R)-2-hydroxy-1-(1H-indol-3-ylmethyl)-ethyl]-amide]: the pIC50 is 5.46.

On to `CNC(=O)c1ccc(-c2ccc(OC)c(S(=O)(=O)N[C@@H](CO)Cc3c[nH]c4ccccc34)c2)cc1Cl` [Example 3, 3-Chloro-3'-[(R)-2-hydroxy-1-(1H-indol-3-ylmethyl)-ethylsulfamoyl]-4'-methoxybiphenyl-4-carboxylic acid me-thylamide], for which the pIC50 was 5.40.

As to `CNC(=O)c1ccc(-c2ccc(OC(C)C)c(S(=O)(=O)N[C@@H](CO)Cc3c[nH]c4ccccc34)c2)cc1Cl` [Example 9, 3-Chloro-3'-[(R)-2-hydroxy-1-(1H-indol-3-ylmethyl)-ethylsulfamoyl]-4'-isopropoxybiphenyl-4-carboxylic acid methylamide], the pIC50 is 6.74.

Consider `CNC(=O)c1ccc(C#Cc2ccc(OC)c(S(=O)(=O)N[C@@H](CO)Cc3c[nH]c4ccccc34)c2)cc1` [Example 18, 4-{3-[(R)-2-Hydroxy-1-(1H-indol-3-ylmethyl)-ethylsulfamoyl]-4-methoxyphenylethynyl}-N-methyl-benzamide], for which the negative logarithm of the IC50 (pIC50) is 5.60.

Take `CNC(=O)c1ccc(C#Cc2ccc(OC)c(S(=O)(=O)N[C@H](Cc3c[nH]c4ccccc34)C(C)(C)O)c2)cc1` [Example 22, 4-{3-[(R)-2-Hydroxy-1-(1H-indol-3-ylmethyl)-2-methyl-propyisulfamoyl]-4-methoxyphenylethynyl}-N-methyl-benzamide]: the pIC50 was 5.46.
